In patent US6627631B1, “Pharmaceutical composition containing desoxypeganine for the treatment of alcoholism” (priority 1999, dated 2003):

Assays:
[1] = tested on: ethanol-preferring rats (strain going back to the Finnish AA rat line); test: Voluntary alcohol consumption of genetic ethanol-preferring rats (free choice of 10% ethanol or water); type: in vivo; conditions: for Alcohol consumption, absolute / Food intake / Alcohol preference (proportion of ethanol solution to total amount of drink) / Total amount of drink: n=6; for Food intake / Total amount of drink: not significant
Experimental: Influence of deoxypeganine HCl on the voluntary alcohol consumption of genetic ethanol-preferring rats.
The experimental animals were in each case 6 female rats of a strain which goes back to the Finnish AA rat line. The animals of this inbred strain prefer 10% alcohol as a drinking liquid if pure water is additionally offered to them (free choice).
The animals were kept individually in type 3 Makrolon cages at a room temperature of 23° C. and air changes nine times per hour. Dry feed granules (Altromin 1311; meal to which vitamins, minerals, amino acids and trace elements are added; manufacturer: Altromin
Spezialfutterwerke GmbH, Lage), drinking water and ethanol solution (10% v/v) were available to them in unrestricted amounts only during the dark phase from 20.00 hours to 08.00 hours, namely in special vessels which guarantee loss-free feeding and drinking. The amounts consumed were determined gravimetrically; the amounts of drink automatically and continuously with the aid of twelve weighing cells. The respective proportion of ethanol solution to the total amount of drink in % served as a measure of the alcohol preference: 0% means that only water, no ethanol solution, was drunk, 100% means that exclusively ethanol solution was drunk. The average alcohol preference of the untreated experimental animals was 78% or 83%.
Table: Influence of deoxypeganine HCl on the ingestive behavior of female ethanol-prefering rats (n=6). The values determined during the three-day preliminary period in each case are in round brackets.

[2] = tested on: cholinesterase; conditions: known pharmacological properties; cited from earlier work
[3] = in contrast to neostigmine; cited from earlier work
[4] = summary of the table, 15 and 30 mg/kg orally

Row | SMILES | Alcohol consumption, absolute ([1]; 15 mg/kg orally, preliminary period value 6.47 ± 0.43, p<0.01) | Food intake ([1]; 15 mg/kg orally, preliminary period value 55.2 ± 1.3) | Alcohol preference (proportion of ethanol solution to total amount of drink) ([1]; 15 mg/kg orally, preliminary period value 82.8 ± 6.4, p<0.01) [%] | Total amount of drink ([1]; 15 mg/kg orally, preliminary period value 97.2 ± 2.3) | Alcohol consumption, absolute ([1]; 30 mg/kg orally, preliminary period value 6.30 ± 0.34, p<0.001) | Food intake ([1]; 30 mg/kg orally, preliminary period value 55.7 ± 2.1) | Alcohol preference (proportion of ethanol solution to total amount of drink) ([1]; 30 mg/kg orally, preliminary period value 77.8 ± 4.3, p<0.001) [%] | Total amount of drink ([1]; 30 mg/kg orally, preliminary period value 100.9 ± 1.9) | Cholinesterase inhibition, mode of action [2] | Degradation of acetylcholine and of dopamine [2] | Desire for alcohol [1, 4] | Food intake and total amount of drink [1, 4] | Blood-brain barrier passage [3]
1 | Cl.c1ccc2c(c1)CN1CCCC1=N2 [deoxypeganine HCl] | 3.17 ± 0.89 g/kg of BW | 57.7 ± 2.6 ns g/kg of BW | 45.0 ± 12.9 | 89.8 ± 5.6 ns g/kg of BW | 3.71 ± 0.42 g/kg of BW | 44.6 ± 7.6 ns g/kg of BW | 51.7 ± 6.4 | 90.6 ± 6.1 ns g/kg of BW | – | – | – | – | –
2 | c1ccc2c(c1)CN1CCCC1=N2 [deoxypeganine, 1,2,3,9-tetrahydropyrrolo[2,1-b]quinazoline] | – | – | – | – | – | – | – | – | reversibly acting cholinesterase inhibitors | inhibits not only the degradation of acetylcholine, but also that of dopamine | considerably reduced | not significantly changed | crosses the blood-brain barrier
